Experimental data reported in patent US9718840B2, “Condensed 5-oxazolidinone derivative” (SUMITOMO DAINIPPON PHARMA CO., LTD., priority 2014, dated 2017).

How the values were obtained:
Human FXIa = Human FXIa (Homo sapiens, UniProt P03951); experiment: In vitro activated factor XI (FXIa) inhibition test; type: biochemical
[1] = tested on: Rabbit nail bleeding models; experiment: Effect of combined use with antiplatelet drug using rabbit nail bleeding model; type: in vivo; settings: alone; for Bleeding time: rabbit, maximum 60 minutes; for Bleeding time (fold-increase): ratio to vehicle group average
Protocol: Rabbit nail bleeding models were prepared by a modification of the report of Wong et al. (Wong P C. et al., J. Thromb. Haemost. 7: 1313-1320 (2009)). Male rabbits (JW, 1.5 to 3.5 kg) were anesthetized by the inhalation of isoflurane (ISOFLU®, manufactured by DS Pharma Animal Health Co., Ltd.) (introduced anesthesia: 4%, continuous anesthesia: 2 to 3%). For the intravenous administration of a test drug or a vehicle, an indwelling needle was inserted to the auricular vein, and the test drug or the vehicle was promptly intravenously administered (0.67 mL/kg) and then continuously intravenously administered (1 mL/kg/hr). One hour after the start of administration, three posterior toenails were cut and dipped in saline heated to approximately 37° C., and the bleeding time was measured. The bleeding time was defined as a time from the cutting to the arrest of bleeding, and an average value from the three nails was used. The measurement time was 60 minutes at the maximum. If bleeding for 60 minutes or longer was confirmed, the bleeding time was regarded as 60 minutes.

[2] = tested on: Rabbit venous thrombus models; experiment: Effect of combined use with antiplatelet drug using rabbit AVST model; type: in vivo; settings: alone
Protocol: Rabbit venous thrombus models were prepared by a modification of the report of Wong et al. (Wong P C. et al., J. Pharmacol. Exp. Ther. 292: 351-357 (2000)). […] A tracheostomy tube was inserted to each rabbit, which was then ventilated using a respirator. For the intravenous administration of a test drug and blood collection, catheters were inserted to the right femoral vein and the right femoral artery, respectively. An arteriovenous shunt filled with saline was inserted to the carotid artery and the jugular vein. […] Also, 4-0 silk thread having a length of 5 cm was indwelled in the arteriovenous shunt. Blood was sent for 30 minutes from the carotid artery to the jugular vein via the arteriovenous shunt. The shunt was removed, and the weight of the silk thread covered with thrombus was measured. The weight of the silk thread measured before the experiment was subtracted from the measured weight, and the obtained value was used as a wet thrombus weight. One hour before the open of the arteriovenous shunt, the test drug or a vehicle was promptly intravenously administered (0.67 mL/kg) and then continuously intravenously administered (1 mL/kg/hr). The continuous injection was continued throughout the experiment. […] STA calcium chloride (manufactured by Roche Diagnostics K.K.) was added in an amount equal thereto, and the time required for coagulation was measured.

[3] = tested on: Rabbit venous thrombus models; experiment: In vivo antithrombotic effect evaluation test using rabbit (arteriovenous shunt); settings: prompt i.v. + continuous i.v.
Protocol: Rabbit venous thrombus models were prepared by a modification of the report of Wong et al. (Wong P C. et al., J. Pharmacol. Exp. Ther. 292: 351-357 (2000)). Male rabbits (JW, 2 to 4 kg) were anesthetized by the inhalation of isoflurane (ISOFLU®, manufactured by DS Pharma Animal Health Co., Ltd.) (introduced anesthesia: 4%, continuous anesthesia: 1.5 to 2.5%). A tracheostomy tube was inserted to each rabbit, which was then ventilated using a respirator. For the intravenous administration of a test drug and blood collection, catheters were inserted to the right femoral vein and the right femoral artery, respectively. An arteriovenous shunt filled with saline was inserted to the carotid artery and the jugular vein. The arteriovenous shunt was prepared by connecting Atom extension tubes (4Fr) having lengths of 15 cm and 13 cm to the artery side and the vein side, respectively, of a polyethylene tube (length: 60 cm, outside diameter: 11.1 mm, inside diameter: 7.9 mm). Also, 4-0 silk thread having a length of 5 cm was indwelled in the arteriovenous shunt. Blood was sent for 30 minutes from the carotid artery to the jugular vein via the arteriovenous shunt. The shunt was removed, and the weight of the silk thread covered with thrombus was measured. The weight of the silk thread measured before the experiment was subtracted from the measured weight, and the obtained value was used as a wet thrombus weight. One hour before the open of the arteriovenous shunt, the test drug or a vehicle was promptly intravenously administered (0.67 mL/kg) and then continuously intravenously administered (1 mL/kg/hr). The continuous injection was continued throughout the experiment. Further, an existing anticoagulant dabigatran (antithrombin drug) and rivaroxaban (FXa inhibitor) were tested as control drugs.
In order to measure aPTT of blood samples as an index for the intrinsic coagulation pathway, blood was collected before administration and immediately before cessation of blood flow, and plasma was prepared using 3.2% sodium citrate. After incubation at 37° C. for 6 minutes, an STA reagent Cephascreen (for aPTT assay; manufactured by Roche Diagnostics K.K.) was added in an amount equal thereto, and the mixture was further incubated for 4 minutes. STA calcium chloride (manufactured by Roche Diagnostics K.K.) was added in an amount equal thereto, and the time required for coagulation was measured.
In order to measure prothrombin time (PT) of blood samples as an index for the extrinsic coagulation pathway, blood was collected before administration and immediately before cessation of blood flow, and plasma was prepared using 3.2% sodium citrate. After incubation at 37° C. for 10 minutes, Neoplastin Plus (for PT assay; manufactured by Roche Diagnostics K.K.) was added in a double amount, and the time required for coagulation was measured.

[4] = tested on: Rabbit nail bleeding models; experiment: Bleeding time evaluation test using rabbit nail bleeding model; type: in vivo; settings: for Bleeding time: Experiment 1 (maximum 30 minutes), rabbit; for Bleeding time (fold-increase): Experiment 1, ratio to vehicle group average
Protocol: Rabbit nail bleeding models were prepared by a modification of the report of Wong et al. (Wong P C. et al., J. Thromb. Haemost. 7: 1313-1320 (2009)). Male rabbits (JW, 1.5 to 3.5 kg) were anesthetized by the inhalation of isoflurane (ISOFLU®, manufactured by DS Pharma Animal Health Co., Ltd.) (introduced anesthesia: 4%, continuous anesthesia: 2 to 3%).
For the intravenous administration of a test drug or a vehicle, an indwelling needle was inserted to the auricular vein, and the test drug or the vehicle was promptly intravenously administered (0.67 mL/kg) and then continuously intravenously administered (1 mL/kg/hr). One hour after the start of administration, three posterior toenails were cut and dipped in saline heated to approximately 37° C., and the bleeding time was measured. The bleeding time was defined as a time from the cutting to the arrest of bleeding, and an average value from the three nails was used. The measurement time was 30 minutes at the maximum for experiment 1 and 60 minutes at the maximum for experiment 2. In each experiment, if bleeding for 30 minutes or 60 minutes or longer was confirmed, the bleeding time was regarded as 30 minutes or 60 minutes.

[5] = dose 0.03 + 0.045 mg/kg + mg/kg/h i.v.
[6] = dose 0.1 + 0.15 mg/kg + mg/kg/h i.v.
[7] = dose 0.03 + 0.045 mg/kg + mg/kg/h
[8] = dose 0.1 + 0.15 mg/kg + mg/kg/h
[9] = dose 0.3 + 0.45 mg/kg + mg/kg/h
[10] = dose 0.3 + 0.45 mg/kg + mg/kg/h i.v.

Chain of Human FXIa (P03951 388-625 limits assumed): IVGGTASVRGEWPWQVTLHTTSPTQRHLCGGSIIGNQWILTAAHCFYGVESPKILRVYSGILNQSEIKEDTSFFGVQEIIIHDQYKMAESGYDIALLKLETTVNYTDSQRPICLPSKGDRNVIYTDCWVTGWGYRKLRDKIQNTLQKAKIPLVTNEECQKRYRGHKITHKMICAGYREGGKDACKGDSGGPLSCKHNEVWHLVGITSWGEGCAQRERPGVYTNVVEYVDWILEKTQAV
Chain of Human FXIa (P03951 19-387 partner limits assumed): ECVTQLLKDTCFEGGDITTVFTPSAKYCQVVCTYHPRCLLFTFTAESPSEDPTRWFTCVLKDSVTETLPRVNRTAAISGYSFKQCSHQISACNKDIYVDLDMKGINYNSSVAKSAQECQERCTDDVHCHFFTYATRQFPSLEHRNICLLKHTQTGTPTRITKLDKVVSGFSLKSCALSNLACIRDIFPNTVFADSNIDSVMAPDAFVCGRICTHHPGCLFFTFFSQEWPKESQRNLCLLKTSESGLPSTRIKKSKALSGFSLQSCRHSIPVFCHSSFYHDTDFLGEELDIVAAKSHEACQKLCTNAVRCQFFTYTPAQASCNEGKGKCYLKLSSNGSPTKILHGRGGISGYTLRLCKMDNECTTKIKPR

N[C@H](CF)[C@H]1CC[C@H](C(=O)N2CC[C@@H](C3CCCCC3)[C@H]2C(=O)Nc2ccc3[nH]c(C(=O)O)nc3c2)CC1
IC50 (Human FXIa): 34 nM

N[C@H](CF)[C@H]1CC[C@H](C(=O)N2CC[C@H](c3ccccc3)[C@H]2C(=O)Nc2ccc3[nH]c(C(=O)O)cc3c2)CC1
IC50 (Human FXIa): 20 nM

O=C(NC[C@H]1CN(c2ccc(N3CCOCC3=O)cc2)C(=O)O1)c1ccc(Cl)s1 [Rivaroxaban]
Bleeding time [1, 5]: 1614 ± 869 s
Bleeding time [1, 6]: 2445 ± 964 s
Bleeding time (fold-increase) [1, 5]: 2.8 ± 1.5 fold-increase
Bleeding time (fold-increase) [1, 6]: 4.2 ± 1.7 fold-increase
PT (ratio) [2, 5]: 1.23 ± 0.05 ratio
Thrombus weight [2, 5]: 92 ± 19 mg
aPTT (ratio) [2, 5]: 1.22 ± 0.06 ratio
PT (ratio) [2, 6]: 1.73 ± 0.15 ratio
Thrombus weight [2, 6]: 58 ± 9 mg
aPTT (ratio) [2, 6]: 1.50 ± 0.09 ratio
PT (ratio) [3, 7]: 1.23 ± 0.05 ratio
Thrombus weight [3, 7]: 92 ± 19 mg
aPTT (ratio) [3, 7]: 1.22 ± 0.06 ratio
PT (ratio) [3, 8]: 1.73 ± 0.15 ratio
Thrombus weight [3, 8]: 58 ± 9 mg
aPTT (ratio) [3, 8]: 1.50 ± 0.09 ratio
PT (ratio) [3, 9]: 2.87 ± 0.33 ratio
Thrombus weight [3, 9]: 29 ± 10 mg
aPTT (ratio) [3, 9]: 1.87 ± 0.14 ratio
Bleeding time [4, 5]: 1031 ± 319 s
Bleeding time [4, 6]: 1369 ± 334 s
Bleeding time [4, 10]: 1733 ± 110 s
Bleeding time (fold-increase) [4, 5]: 2.3 ± 0.7 fold-increase
Bleeding time (fold-increase) [4, 6]: 3.0 ± 0.7 fold-increase
Bleeding time (fold-increase) [4, 10]: 3.8 ± 0.2 fold-increase

N[C@H](CF)[C@H]1CC[C@H](C(=O)N2CC[C@@H](c3ccccc3)[C@H]2C(=O)Nc2ccc3[nH]c(C(=O)O)cc3c2)CC1
IC50 (Human FXIa): 15 nM
